In US10130724B2, “Mini-gastrin analogue, in particular for use in CCK2 receptor positive tumour diagnosis and/or treatment” (PAUL SCHERRER INSTITUT, priority 2013, dated 2018):

Experiments:
[1] = Stability of 177Lu-labelled mini-gastrin analogues in human serum, metabolites by HPLC; assay type: in vitro ADME; details: compared to PP-F11, PP-F10N and PP-F10
Method: 12 MBq of the radiolabelled compound was incubated in 2 mL fresh human plasma. A 40 μL probe was taken after 0, 1, 2, 18, 24, 48 and 72 h and added 200 μL (50% Methanol and 50% Acetonitril) in a Mini-UniPrep Filter. The solution is filtered after vortexing. 40 μL of the filtered solution is analyzed by HPLC.

[2] = tested on: human CCK-2 receptor transfected A431 cells; assay: Biodistribution of 177Lu-labelled mini-gastrin analogues in tumour-bearing CD1 nu/nu mice; assay type: in vivo; details: 4 hours after injection
Method: PP-F11N has been investigated according to the CD1 nu/nu mice model. […] FIG. 2 illustrates the biodistribution of PP-F11, PP-F11N and oxidized PP-F11 ox (oxidized PP-F11) after 4 hours in the athymic CD1 nu/nu mice model. Tumour positive: with human CCK-2 receptor transfected A431 cells on one side of the mouse; tumor negative: CCK-2 receptor negative A431 cells on the other side of the mouse. The effect of the higher tumor uptake by the exchange of methionine with norleucine is specifically apparent with compounds having the DGlu6 sequence, different from compounds having a sequence with DGLn6 which is referred to as PP-F10.
CD1 nu/nu mice were injected with 5×10^6 A431 cells. CCK-2 receptor positive A431 cells' were injected into one flank and mock cells on the other as an unspecific control. The tumors reach a weight of about 80 to 120 mg after about 10 days. 150-200 kBq (5 pmol) of the radiolabelled peptides were injected into the tail vein. Mice were killed by CO2 asphyxiation after defined time points post injection. The organs were dissected, weighted and the activity was measured. The % injected activity per gram (% i.A./g) was calculated. The animal experiments were approved by the local animal welfare committee and performed according to national regulations.

Question: What does the source list for `CCCC[C@H](NC(=O)[C@H](Cc1c[nH]c2ccccc12)NC(=O)CNC(=O)[C@H](Cc1ccc(O)cc1)NC(=O)[C@H](C)NC(=O)[C@@H](CCC(=O)O)NC(=O)[C@@H](CCC(=O)O)NC(=O)[C@@H](CCC(=O)O)NC(=O)[C@@H](CCC(=O)O)NC(=O)[C@@H](CCC(=O)O)NC(=O)[C@@H](CCC(=O)O)NC(=O)CN1CCN(CC(=O)O)CCN(CC(=O)O)CCN(CC(=O)O)CC1)C(=O)N[C@@H](CC(=O)O)C(=O)N[C@@H](Cc1ccccc1)C(N)=O` [PP-F11N]?
Answer: pharmacologic stability [1]: highest pharmacologic stability of all probands; accumulation in the kidneys [2]: very few accumulation in the kidneys
